ChEMBL document CHEMBL4138146, “A Schmidt rearrangement-mediated synthesis of novel tetrahydro-benzo[1,4]diazepin-5-ones as potential anticancer and antiprotozoal agents” (Eur J Med Chem, 2017)

Key:
Assay type in all cases: functional
[1] = tested on: NCI-H460; experiment: Growth inhibition of human NCI-H460 cells incubated for 48 hrs by sulforhodamine B assay; settings: NCI-H460, 48 h
[2] = tested on: K562; experiment: Growth inhibition of human K562 cells incubated for 48 hrs by sulforhodamine B assay; settings: K562, 48 h
[3] = tested on: HOP-92; experiment: Growth inhibition of human HOP92 cells incubated for 48 hrs by sulforhodamine B assay; settings: HOP-92, 48 h
[4] = tested on: Hs-578T; experiment: Growth inhibition of human Hs 578T cells incubated for 48 hrs by sulforhodamine B assay
[5] = tested on: RXF 393; experiment: Growth inhibition of human RXF393 cells incubated for 48 hrs by sulforhodamine B assay; settings: RXF 393, 48 h
[6] = tested on: HL-60(TB); experiment: Growth inhibition of human HL-60(TB) cells incubated for 48 hrs by sulforhodamine B assay; settings: HL-60, 48 h
[7] = tested on: DU-145; experiment: Growth inhibition of human DU145 cells incubated for 48 hrs by sulforhodamine B assay; settings: DU-145, 48 h; for CC50: read-out: LC50 (the source's name)
[8] = tested on: MOLT-4; experiment: Growth inhibition of human MOLT4 cells incubated for 48 hrs by sulforhodamine B assay; settings: MOLT-4, 48 h; for CC50: read-out: LC50 (the source's name)
[9] = tested on: OVCAR-4; experiment: Growth inhibition of human OVCAR4 cells incubated for 48 hrs by sulforhodamine B assay; settings: OVCAR-4, 48 h
[10] = tested on: KM12; experiment: Growth inhibition of human KM12 cells incubated for 48 hrs by sulforhodamine B assay; settings: KM12, 48 h
[11] = tested on: NCI-H23; experiment: Growth inhibition of human NCI-H23 cells incubated for 48 hrs by sulforhodamine B assay; settings: NCI-H23, 48 h
[12] = tested on: SF-539; experiment: Growth inhibition of human SF539 cells incubated for 48 hrs by sulforhodamine B assay; settings: SF-539, 48 h
[13] = tested on: OVCAR-8; experiment: Growth inhibition of human OVCAR8 cells incubated for 48 hrs by sulforhodamine B assay; settings: OVCAR-8, 48 h
[14] = tested on: 786-0; experiment: Growth inhibition of human 786-0 cells incubated for 48 hrs by sulforhodamine B assay; settings: 786-0, 48 h
[15] = tested on: OVCAR-5; experiment: Growth inhibition of human OVCAR5 cells incubated for 48 hrs by sulforhodamine B assay; settings: OVCAR-5, 48 h; for CC50: read-out: LC50 (the source's name)
[16] = tested on: MDA-MB-231; experiment: Growth inhibition of human MDA-MB-231 cells incubated for 48 hrs by sulforhodamine B assay; settings: MDA-MB-231, 48 h
[17] = tested on: EKVX; experiment: Growth inhibition of human EKVX cells incubated for 48 hrs by sulforhodamine B assay
[18] = tested on: COLO 205; experiment: Growth inhibition of human COLO205 cells incubated for 48 hrs by sulforhodamine B assay; settings: COLO 205, 48 h
[19] = tested on: SK-OV-3; experiment: Growth inhibition of human SKOV3 cells incubated for 48 hrs by sulforhodamine B assay; settings: SK-OV-3, 48 h; for CC50: read-out: LC50 (the source's name)
[20] = tested on: SF-295; experiment: Growth inhibition of human SF295 cells incubated for 48 hrs by sulforhodamine B assay; settings: SF-295, 48 h
[21] = tested on: SW-620; experiment: Growth inhibition of human SW620 cells incubated for 48 hrs by sulforhodamine B assay; settings: SW-620, 48 h
[22] = tested on: SN12C; experiment: Growth inhibition of human SN12C cells incubated for 48 hrs by sulforhodamine B assay
[23] = tested on: ACHN; experiment: Growth inhibition of human ACHN cells incubated for 48 hrs by sulforhodamine B assay; settings: for CC50: read-out: LC50 (the source's name)
[24] = tested on: T47D; experiment: Growth inhibition of human T47D cells incubated for 48 hrs by sulforhodamine B assay
[25] = tested on: SK-MEL-5; experiment: Growth inhibition of human SK-MEL-5 cells incubated for 48 hrs by sulforhodamine B assay; settings: SK-MEL-5, 48 h; for CC50: read-out: LC50 (the source's name)
[26] = tested on: HT-29; experiment: Growth inhibition of human HT-29 cells incubated for 48 hrs by sulforhodamine B assay; settings: HT-29, 48 h
[27] = tested on: SK-MEL-2; experiment: Growth inhibition of human SK-MEL-2 cells incubated for 48 hrs by sulforhodamine B assay; settings: SK-MEL-2, 48 h; for CC50: read-out: LC50 (the source's name)
[28] = tested on: HOP-62; experiment: Growth inhibition of human HOP62 cells incubated for 48 hrs by sulforhodamine B assay; settings: HOP-62, 48 h
[29] = tested on: BT-549; experiment: Growth inhibition of human BT549 cells incubated for 48 hrs by sulforhodamine B assay; settings: BT-549, 48 h
[30] = tested on: OVCAR-3; experiment: Growth inhibition of human OVCAR3 cells incubated for 48 hrs by sulforhodamine B assay; settings: OVCAR-3, 48 h
[31] = tested on: IGROV-1; experiment: Growth inhibition of human IGROV1 cells incubated for 48 hrs by sulforhodamine B assay; settings: IGROV-1, 48 h; for CC50: read-out: LC50 (the source's name)
[32] = tested on: SNB-19; experiment: Growth inhibition of human SNB19 cells incubated for 48 hrs by sulforhodamine B assay; settings: SNB-19, 48 h
[33] = tested on: NCI-H322M; experiment: Growth inhibition of human NCI-H322M cells incubated for 48 hrs by sulforhodamine B assay
[34] = tested on: M14; experiment: Growth inhibition of human M14 cells incubated for 48 hrs by sulforhodamine B assay; settings: M14, 48 h
[35] = tested on: SR; experiment: Growth inhibition of human SR cells incubated for 48 hrs by sulforhodamine B assay
[36] = tested on: UO-31; experiment: Growth inhibition of human UO31 cells incubated for 48 hrs by sulforhodamine B assay; settings: UO-31, 48 h
[37] = tested on: SNB-75; experiment: Growth inhibition of human SNB75 cells incubated for 48 hrs by sulforhodamine B assay; settings: SNB-75, 48 h; for CC50: read-out: LC50 (the source's name)
[38] = tested on: CAKI-1; experiment: Growth inhibition of human Caki1 cells incubated for 48 hrs by sulforhodamine B assay; settings: CAKI-1, 48 h; for CC50: read-out: LC50 (the source's name)
[39] = read-out: LC50 (the source's name)

COc1cccc2c1C(=O)c1c(O)c3c(c(O)c1C2=O)C[C@@](O)(C(=O)CO)C[C@@H]3O[C@H]1C[C@H](N)[C@H](O)[C@H](C)O1 [DOXORUBICIN]
GI50 [1]: 0.02 µM | GI50 [2]: 0.19 µM | GI50 [3]: 0.1 µM | GI50 [4]: 0.33 µM | GI50 [5]: 0.1 µM | GI50 [6]: 0.12 µM | GI50 [7]: 0.11 µM | CC50 [7]: 100 µM | GI50 [8]: 0.03 µM | CC50 [8]: 100 µM | GI50 [9]: 0.37 µM | GI50 [10]: 0.27 µM | GI50 [11]: 0.15 µM | GI50 [12]: 0.12 µM | GI50 [13]: 0.1 µM | GI50 [14]: 0.13 µM | GI50 [15]: 0.41 µM | CC50 [15]: 100 µM | GI50 [16]: 0.51 µM | GI50 [17]: 0.41 µM | GI50 [18]: 0.18 µM | GI50 [19]: 0.22 µM | CC50 [19]: 100 µM | GI50 [20]: 0.1 µM | GI50 [21]: 0.09 µM | GI50 [22]: 0.07 µM | GI50 [23]: 0.08 µM | CC50 [23]: 100 µM | GI50 [24]: 0.06 µM | GI50 [25]: 0.14 µM | CC50 [25]: 8.15 µM | GI50 [26]: 0.12 µM | GI50 [27]: 0.21 µM | CC50 [27]: 15.9 µM | GI50 [28]: 0.07 µM | GI50 [29]: 0.23 µM | GI50 [30]: 0.39 µM | GI50 [31]: 0.17 µM | CC50 [31]: 100 µM | GI50 [32]: 0.04 µM | GI50 [33]: 0.54 µM | GI50 [34]: 0.18 µM | GI50 [35]: 0.03 µM | GI50 [36]: 0.49 µM | GI50 [37]: 0.07 µM | CC50 [37]: 3.3 µM | GI50 [38]: 0.95 µM | CC50 [38]: 100 µM

CCCCOc1nc2ccccc2cc1C1CNC(=O)c2ccccc2N1 (configuration not stated)
GI50 [1]: 3.11 µM | LC50 (concentration killing 50% of cells) [1]: 51.1 µM | TGI [1]: 11.6 µM | GI50 [2]: 0.84 µM | LC50 [2]: > 100 µM | TGI [2]: 16.4 µM | GI50 [3]: 1.92 µM | TGI [3]: 22.6 µM | CC50 [3, 39]: > 100 µM | GI50 [4]: 3.21 µM | TGI [4]: 33.8 µM | CC50 [4, 39]: > 100 µM | GI50 [5]: 2.5 µM | TGI [5]: 12.1 µM | CC50 [5, 39]: 75.4 µM | GI50 [6]: 0.047 µM | LC50 [6]: 65.4 µM | TGI [6]: 0.384 µM | GI50 [7]: 3.16 µM | TGI [7]: 12.9 µM | CC50 [7]: > 100 µM | GI50 [8]: 3.05 µM | TGI [8]: 13.6 µM | CC50 [8]: > 100 µM | GI50 [9]: 5.38 µM | TGI [9]: 31.8 µM | CC50 [9, 39]: > 100 µM | GI50 [10]: 3.3 µM | TGI [10]: 80.6 µM | CC50 [10, 39]: > 100 µM | GI50 [11]: 5.16 µM | TGI [11]: 36.8 µM | CC50 [11, 39]: > 100 µM | GI50 [12]: 2.29 µM | TGI [12]: 7.47 µM | CC50 [12, 39]: 44.9 µM | GI50 [13]: 3.45 µM | TGI [13]: 16.1 µM | CC50 [13, 39]: > 100 µM | GI50 [14]: 2.84 µM | TGI [14]: 10.4 µM | CC50 [14, 39]: 4.65 µM | GI50 [15]: 6.42 µM | TGI [15]: 41 µM | CC50 [15]: > 100 µM | GI50 [16]: 3.83 µM | TGI [16]: 20.9 µM | CC50 [16, 39]: 90.3 µM | GI50 [17]: 4.76 µM | TGI [17]: 82.8 µM | CC50 [17, 39]: > 100 µM | GI50 [18]: 2.19 µM | TGI [18]: 4.95 µM | CC50 [18, 39]: 23 µM | GI50 [19]: 2.38 µM | TGI [19]: 9.96 µM | CC50 [19]: > 100 µM | GI50 [20]: 1.4 µM | TGI [20]: 9.82 µM | CC50 [20, 39]: 52.4 µM | GI50 [21]: 2.19 µM | TGI [21]: 27.1 µM | CC50 [21, 39]: > 100 µM | GI50 [22]: 3.34 µM | TGI [22]: 18.2 µM | CC50 [22, 39]: 90.6 µM | GI50 [23]: 3.92 µM | TGI [23]: 17.1 µM | CC50 [23]: 5.95 µM | GI50 [24]: 5.32 µM | TGI [24]: > 100 µM | CC50 [24, 39]: > 100 µM | GI50 [25]: 2.34 µM | TGI [25]: 20 µM | CC50 [25]: > 100 µM | GI50 [26]: 3.21 µM | TGI [26]: 11.1 µM | CC50 [26, 39]: 67.7 µM | GI50 [27]: 4.79 µM | TGI [27]: 48.5 µM | CC50 [27]: > 100 µM | GI50 [28]: 2.99 µM | LC50 [28]: 76.7 µM | TGI [28]: 17.4 µM | GI50 [29]: 5.22 µM | TGI [29]: 38.8 µM | CC50 [29, 39]: > 100 µM | GI50 [30]: 1.31 µM | TGI [30]: 3.53 µM | CC50 [30, 39]: 9.4 µM | GI50 [31]: 4.49 µM | TGI [31]: 23.9 µM | CC50 [31]: 98.5 µM | GI50 [32]: 6.13 µM | TGI [32]: 75.3 µM | CC50 [32, 39]: > 100 µM | GI50 [33]: 4.5 µM | TGI [33]: 45.5 µM | CC50 [33, 39]: > 100 µM | GI50 [34]: 1.54 µM | TGI [34]: 11.8 µM | CC50 [34, 39]: 92.2 µM | GI50 [35]: 1.26 µM | LC50 [35]: > 100 µM | TGI [35]: 10.7 µM | GI50 [36]: 2.41 µM | TGI [36]: 20.9 µM | CC50 [36, 39]: 67.2 µM | GI50 [37]: 1.81 µM | TGI [37]: 13.7 µM | CC50 [37]: 48.3 µM | GI50 [38]: 2.83 µM | TGI [38]: 34.4 µM | CC50 [38]: > 100 µM
